Consider four compounds from patent US20220411362A1, “DITERPENOID COMPOUNDS THAT ACT ON PROTEIN KINASE C (PKC)” (K-Gen, Inc., priority 2019, published 2022).

One assay concerns the target T1, C1b domain of human PKCα (Homo sapiens, UniProt P17252).
T1 construct: Genes encoding C1b domains of human PKCα, δ, ε, θ, and PKD1 (PKCμ) were synthesized; made in house; host or cells: E. coli BL21(DE3)
In words: biochemical. The note with it: 3H-PDBu competition; for Ki: Ki PKCα. It is filed as binding. The procedure, abridged: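 Competitive binding against 3H-PDBu tracer used recombinant GST-C1b fusion protein expressed in E. coli. Incubation ran 10 min at 37°C with shaking, then 20 min on ice, followed by filtration and scintillation counting of trapped 3H-PDBu. Affinity was derived using each protein preparation's experimentally determined Kd for 3H-PDBu.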

The next assay addresses T2, C1b domain of human PKCθ (Homo sapiens, UniProt Q04759).
T2 construct: Genes encoding C1b domains of human PKCα, δ, ε, θ, and PKD1 (PKCμ) were synthesized; made in house; host or cells: E. coli BL21(DE3)
T2 sequence (Q04759 231-281 limits assumed): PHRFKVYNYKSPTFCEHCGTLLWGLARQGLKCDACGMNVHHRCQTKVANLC
In words: Competitive 3H-PDBu binding to C1b domain of PKCθ. The procedure, abridged: (§1)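 First, the E. coli-produced human GST-C1b protein was mixed with compound and 3H-PDBu and shaken 10 min at 37° C. Next, the plate sat on ice 20 min before filtration and scintillation counting of bound tracer. Finally, IC50 fits were transformed into Ki values.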

The target in assay [1] is T3, C1b domain of human PKD1 (PKCμ) (Homo sapiens, UniProt Q15139).
T3 construct: Genes encoding C1b domains of human PKCα, δ, ε, θ, and PKD1 (PKCμ) were synthesized; made in house; host or cells: E. coli BL21(DE3)
T3 sequence (Q15139 270-320 limits assumed): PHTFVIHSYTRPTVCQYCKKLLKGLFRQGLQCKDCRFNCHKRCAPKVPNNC
In words: biochemical. It is filed as binding. The procedure, abridged:
as §1

Assay [2] deals with Panc2.13 (Pancreatic) cell line. Kind of assay: Proliferation of Panc2.13. It is filed as cell-based. Particulars: for ratio of (IC50 of K01)/(IC50 of compound), Panc2.13: value in parenthesis; for IC50: read-out: IC50 in μM Panc2.13 (Pancreatic). The procedure, abridged: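 After a 24 h settling period at 37° C, each line received compound from a 3-fold serial series with DMSO capped at 0.25%. Incubation ran 96 h before CellTiter Glo reagent was added. Inhibition % = (Max − sample)/Max × 100, with Max from DMSO-treated cells.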

Assay [3] has as its system KP-4 (Pancreatic) cell line. Kind of assay: Proliferation of KP-4. Particulars: Homo sapiens, KP-4, read-out: IC50 in μM KP-4 (Pancreatic). It is filed as cell-based. The procedure, abridged:
(§2)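 Cells were seeded at 800-1000/well (KP-4), 5000/well (HL-60) or 5000-10000/well (Namalwa, Mino) and held 24 h at 37° C. Compounds were serially diluted 3-fold in DMSO, final DMSO ≤0.25%, for 96 h; CellTiter Glo luminescence gave % inhibition versus DMSO and IC50.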

For assay [4], the system named is HL-60 (Leukemia) cell line. Kind of assay: Proliferation of HL-60. It is filed as cell-based. Particulars: for ratio of (IC50 of K01)/(IC50 of compound), HL-60: value in parenthesis; for IC50: Homo sapiens, HL-60, read-out: IC50 in μM HL-60 (Leukemia). Put shortly: as §2
The test system of assay [5] is Mino (Lymphoma) cell line. In words: Proliferation of Mino. In kind it is cell-based. The note with it: for IC50: Homo sapiens, MINO, read-out: IC50 in μM Mino (Lymphoma); for ratio of (IC50 of K01)/(IC50 of compound), Mino: value in parenthesis. The procedure, abridged:
as §2

In another assay the test system is PANC1 cells. In words: Sphere formation assay (cancer stemness). In kind it is cell-based. Particulars: Homo sapiens, PANC-1, read-out: concentration exhibiting at least 50% inhibition on the sphere forming efficiency. The procedure:
A group of diterpenoid compounds of the present disclosure were tested to assess their effects on blocking formation of spheres from cancer cell lines such as PANC1, a K-Ras mutant pancreatic cell line. Briefly, PANC1 cells were harvested, re-suspended as single cell suspensions, counted and seeded into Ultra Low Attachment Culture 96-well plate (Corning, Cat #3474) at 100 cells/well in 100 μl of complete media (with 10% FBS) containing 2% Matrigel (Corning, Cat #354234) and DMSO or compounds. Six replicates per condition were seeded. The seeded cells were placed in the 37° C. tissue culture incubator. 10 μl of low serum containing media (with 0.1% FBS) was added to each well every week. Spheres formed after 3-4 weeks were counted. Sphere forming efficiency was expressed as percentage of # of spheres/# of cells seeded.

With `CC1=C[C@H]2[C@@]3(O)[C@H](C)C[C@]4(OC(=O)[C@@H](N)CC5CCCCC5)[C@H]([C@@H]3C=C(CO)C[C@]2(O)C1=O)C4(C)C` [Compound K101-C1327], the “Ki PKCα” value at C1b domain of human PKCα is “E (E=>60 nM and ≤10 nM)”. The Ki (as a rule, the equilibrium dissociation constant of an inhibitor or competing ligand from its target) is 5 to 10 nM on C1b domain of human PKCθ and less than 5 nM in assay [1]. Besides, the “ratio of (IC50 of K01)/(IC50 of compound), Panc2.13” value (shortened to “ratio … Panc2.13”) in assay [2] came out at 7.1. In addition, the IC50 in assay [2] fell in the range of 0.1 to 0.2 µM; in assay [3], 0.1 to 0.2 µM; in assay [4], 0.03 to 0.06 µM; in assay [5], 0.001 to 0.01 µM. In addition, the “ratio of (IC50 of K01)/(IC50 of compound), HL-60” value (“ratio … HL-60” below) in assay [4] amounted to 2.32. In assay [5], the “ratio of (IC50 of K01)/(IC50 of compound), Mino” value (shortened to “ratio … Mino”) came to 7.33.
Turning to `CC1=C[C@H]2[C@@]3(O)[C@H](C)C[C@]4(OC(=O)[C@H](N)CCCCCCc5ccccc5)[C@H]([C@@H]3C=C(CO)C[C@]2(O)C1=O)C4(C)C` [Compound K101-C134801], the Ki on C1b domain of human PKCα was 400 to 800 nM; at C1b domain of human PKCθ it was 1 to 30 nM; in assay [1], less than 5 nM. For the same compound, the “ratio … Panc2.13” value in assay [2] was determined as 13.4. Further, the IC50 in assay [2] is 0.06 to 0.1 µM; in assay [3] it was 0.03 to 0.06 µM; in assay [4], 0.01 to 0.03 µM; in assay [5], 0.001 to 0.01 µM; in the assay with PANC1 cells, not above 150 nM. Further, in assay [4], the “ratio … HL-60” value is listed as 4.43. Moreover, the “ratio … Mino” value in assay [5] stood at 21.3.
With `CC1=C[C@H]2[C@@]3(O)[C@H](C)C[C@]4(OC(=O)[C@@H](N)[C@]56C[C@H]7C[C@H](C[C@H](C7)C5)C6)[C@H]([C@@H]3C=C(CO)C[C@]2(O)C1=O)C4(C)C` [Compound K101-C1347], the results for the Ki (on C1b domain of human PKCα; on C1b domain of human PKCθ; in assay [1]) were 1 to 30 nM, less than 5 nM and less than 5 nM, respectively. Also, the “ratio … Panc2.13” value in assay [2] was determined as 71.7. In addition, the IC50 is 0.01 to 0.03 µM in assay [2]; 0.001 to 0.01 µM in assay [3]; 0.001 to 0.01 µM in assay [4]; 0.001 to 0.01 µM in assay [5]; not above 50 nM with PANC1 cells. The “ratio … HL-60” value in assay [4] is 16.2. For the same compound, the “ratio … Mino” value in assay [5] is 52.2.
As for `CC1=C[C@H]2[C@@]3(O)[C@H](C)C[C@]4(OC(=O)[C@@H](N)CCCCCCc5ccccc5)[C@H]([C@@H]3C=C(CO)C[C@]2(O)C1=O)C4(C)C` [Compound K101-C134802], the Ki at C1b domain of human PKCα was 30 to 60 nM; at C1b domain of human PKCθ, less than 5 nM; in assay [1], less than 5 nM. Also, the “ratio … Panc2.13” value in assay [2] was determined as 57.3. The IC50 was 0.01 to 0.03 µM in assay [2]; 0.001 to 0.01 µM in assay [3]; 0.001 to 0.01 µM in assay [4]; 0.001 to 0.01 µM in assay [5]; not above 50 nM in the assay with PANC1 cells. Also, the “ratio … HL-60” value in assay [4] was 12.1. In assay [5], the “ratio … Mino” value is on record as 52.2.
